The values that follow come from paper PMC9894920, “Development of an improved and specific inhibitor of NADPH oxidase 2 to treat traumatic brain injury” (Redox Biology, 2023).

Molecules are shown by their SMILES. Values after ≈ are worked out from the molar mass of the structure shown. Like-named read-outs stand apart in the source and are kept apart here.

The nature of series [1]: Rat liver microsomal stability. Type of series: in vitro ADME. To be noted: for half-life: SD, rat, liver microsomes, read-out: Rat_SD/Microsomes t1/2 (m). The method, then: (§1) The rat liver microsomal stability, parallel artificial membrane permeability assay (PAMPA), and aqueous kinetic solubility assay in phosphate-buffered saline (PBS) buffer were performed as described in the indicated references.

The nature of series [2]: Aqueous kinetic solubility in PBS buffer. The format is physicochemical. The method, then:
as §1

Series [3] can be described thus: Parallel artificial membrane permeability assay (PAMPA). The format is in vitro ADME. To be noted: for Papp: pH 7.4, PAMPA, pH7.4, read-out: Permeability(pH7.4) (PAMPA_Pion_Lipid 1e-6 cm/s). The method, then:
as §1
A general note: In PAMPA a lipid-coated filter parts donor from acceptor wells.

In the next series the target is T1, Bovine Xanthine Oxidase (Bos taurus, UniProt P80457).
T1 construct: purchased Sigma
In words: Xanthine oxidase / hypoxanthine luminol chemiluminescence assay. To be noted: xanthine oxidase with hypoxanthine; mean ± SD, n in cell; read-out: X/XO IC50. Type of series: biochemical. The method, then:
Bovine Xanthine Oxidase (Sigma) was dialyzed in PBS to remove ammonium sulfate and stored at 4 °C. Hypoxanthine was prepared by heating in DMSO. Reactions were prepared by diluting xanthine oxidase in HBSS (final concentration 1.25 mU/mL) that contained 50 μM luminol and were preincubated 5 min with control or inhibitor before the addition of hypoxanthine at a final concentration of 0.5 mM. Luminescence was measured at 24 °C as described above.

Series [4] addresses T2, NOX2 (Mus musculus, UniProt Q61093).
T2 construct: relative potencies in primary mouse neutrophils enriched from bone marrow; endogenous in cells; host or cells: primary mouse bone-marrow granulocytes
T2 sequence (Q61093 2-570 limits assumed): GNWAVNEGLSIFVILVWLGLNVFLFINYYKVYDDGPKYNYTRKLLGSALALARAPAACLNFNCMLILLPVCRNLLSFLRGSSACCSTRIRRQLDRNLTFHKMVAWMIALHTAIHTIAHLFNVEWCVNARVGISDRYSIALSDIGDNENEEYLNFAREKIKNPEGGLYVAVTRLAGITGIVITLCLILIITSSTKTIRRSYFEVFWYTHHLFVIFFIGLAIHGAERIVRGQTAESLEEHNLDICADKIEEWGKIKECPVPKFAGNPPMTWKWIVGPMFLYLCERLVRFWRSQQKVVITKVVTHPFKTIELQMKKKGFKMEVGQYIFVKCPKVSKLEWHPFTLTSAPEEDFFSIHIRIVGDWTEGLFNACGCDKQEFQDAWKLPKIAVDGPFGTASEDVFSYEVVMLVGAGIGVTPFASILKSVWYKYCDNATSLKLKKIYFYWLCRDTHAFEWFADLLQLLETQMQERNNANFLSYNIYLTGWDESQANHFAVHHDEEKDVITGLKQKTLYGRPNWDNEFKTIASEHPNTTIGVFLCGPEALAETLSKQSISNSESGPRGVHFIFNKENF
T2 sequence (Q61462 2-192 partner limits assumed): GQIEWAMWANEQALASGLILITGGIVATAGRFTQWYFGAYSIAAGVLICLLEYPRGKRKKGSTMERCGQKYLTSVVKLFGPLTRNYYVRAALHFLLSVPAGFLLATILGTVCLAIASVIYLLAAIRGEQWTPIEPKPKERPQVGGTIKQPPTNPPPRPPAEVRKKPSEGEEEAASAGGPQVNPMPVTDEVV
In words: NOX2 activity in primary mouse neutrophils enriched from bone marrow. Type of series: cell-based. To be noted: SD, n = 8 mice. As to the method: (§2) Human blood was obtained after informed consent by the Department of Transfusion Medicine (NIH Clinical Center) and provided as de-identified specimens. Human granulocytes were isolated using Percoll density fractionation as described and NOX2 activity was assessed in white polypropylene flat bottom 96 well plates following 15 min of preincubation at 37 °C with compounds or vehicle controls using 50 μM luminol as a chemiluminescence enhancer in an assay volume of 100 μl RPMI1640 with 1.1 × 10^5 cells/well in Varioskan Lux luminometer for 30 cycles of 1 s per well (approximately 1 h).
Mouse granulocytes were isolated from bone marrow essentially as described except bones were not sterilized in ethanol and marrow was not flushed through a 100 μm strainer. Furthermore, RPMI1640 was supplemented with 10% FBS, 2 mM EDTA, and 25 mM HEPES buffer and penicillin/streptomycin was omitted. Polymorphonuclear leukocytes (PMN) concentration and purity (>90% granulocytes) were assessed microscopically using 3% acetic acid and a hemacytometer. NOX2 activity was assessed as described above with human granulocytes.

In the next series the test system is NOX1-NOX5. In words: Expi293 whole cell assays, comparison across panel of NOX family members. The format is cell-based, human. As to the method: Given concerns about previous assays for specific NOX family members we here report the first use of the Expi293 Expression System (Thermo Scientific) to overexpress NOX1, 2, 3, 4, and 5 in excess of any endogenous NOX proteins present in these cells. Transfections were performed following the manufacturer's instructions using the plasmids for each NOX as described in Supplemental Table 2 except that the enhancer solution provided with the Expi293 system was not used because it promoted enzyme activation.
After the times indicated in Supplemental Table 2, cells were washed and 50,000 added per well of a white 96-well plate (Greiner) along with 50 μM Luminol and 2.5 U horseradish peroxidase/mL in a volume of 90 μl for NOX1, NOX2, and NOX5. Inhibitors or vehicle controls were added and cells were incubated for 20 min at 37 °C prior to activation with the indicated stimuli. For NOX3 and NOX4 (constitutively active), cells were incubated with inhibitor or vehicle control prior to the addition of luminol and HRP. Chemiluminescence was measured every 2 min for 1 s per well at 37 °C in a Varioscan Multimode reader. AUC data were analyzed using GraphPad Prism using non-linear regression analysis after expressing relative to control alone (maximum ROS production).

Series [5] relates to NOX2. The settings on record: read-out: IC50 for NOX2, originally reported; cited from earlier work.
For the next series, the system named is xanthine oxidase. The settings on record: cited from earlier work.
For series [6], the target named is T3, NOX2 (Homo sapiens, UniProt P04839).
T3 sequence (P04839 2-570 limits assumed): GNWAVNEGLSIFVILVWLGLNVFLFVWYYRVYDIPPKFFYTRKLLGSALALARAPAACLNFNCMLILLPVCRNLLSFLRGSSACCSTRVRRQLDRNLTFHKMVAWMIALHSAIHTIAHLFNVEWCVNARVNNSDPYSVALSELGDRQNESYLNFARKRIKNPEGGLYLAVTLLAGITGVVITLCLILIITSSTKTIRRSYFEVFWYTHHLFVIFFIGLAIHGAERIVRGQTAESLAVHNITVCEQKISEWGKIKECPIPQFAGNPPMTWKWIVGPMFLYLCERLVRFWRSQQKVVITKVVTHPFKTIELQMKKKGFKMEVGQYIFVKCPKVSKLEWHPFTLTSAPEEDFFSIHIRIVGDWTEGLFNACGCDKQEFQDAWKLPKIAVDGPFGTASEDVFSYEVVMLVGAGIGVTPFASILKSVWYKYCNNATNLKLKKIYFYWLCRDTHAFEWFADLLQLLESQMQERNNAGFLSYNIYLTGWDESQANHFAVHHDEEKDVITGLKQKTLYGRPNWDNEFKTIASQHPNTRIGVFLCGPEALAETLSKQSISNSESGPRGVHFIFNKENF
T3 sequence (P13498 2-195 partner limits assumed): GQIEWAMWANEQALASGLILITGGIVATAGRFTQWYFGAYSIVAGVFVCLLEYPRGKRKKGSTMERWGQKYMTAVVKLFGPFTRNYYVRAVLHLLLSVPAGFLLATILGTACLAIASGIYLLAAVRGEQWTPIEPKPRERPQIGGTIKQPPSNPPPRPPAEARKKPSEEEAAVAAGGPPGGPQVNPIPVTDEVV
In words: NOX2 activity in primary human granulocytes (PMN), luminol chemiluminescence. Type of series: cell-based. More on the design: When tested against NOX2 in primary human neutrophils; endogenous in cells; host or cells: primary human granulocytes (PMN) from donor blood. To be noted: mean ± SD, n in cell; read-out: NOX-2 IC50 from PMN. The method, then: as §2

Where [7] appears, read: aqueous buffer, kinetic from dmso stock, read-out: Solubility.

T1 sequence (P80457 whole entry): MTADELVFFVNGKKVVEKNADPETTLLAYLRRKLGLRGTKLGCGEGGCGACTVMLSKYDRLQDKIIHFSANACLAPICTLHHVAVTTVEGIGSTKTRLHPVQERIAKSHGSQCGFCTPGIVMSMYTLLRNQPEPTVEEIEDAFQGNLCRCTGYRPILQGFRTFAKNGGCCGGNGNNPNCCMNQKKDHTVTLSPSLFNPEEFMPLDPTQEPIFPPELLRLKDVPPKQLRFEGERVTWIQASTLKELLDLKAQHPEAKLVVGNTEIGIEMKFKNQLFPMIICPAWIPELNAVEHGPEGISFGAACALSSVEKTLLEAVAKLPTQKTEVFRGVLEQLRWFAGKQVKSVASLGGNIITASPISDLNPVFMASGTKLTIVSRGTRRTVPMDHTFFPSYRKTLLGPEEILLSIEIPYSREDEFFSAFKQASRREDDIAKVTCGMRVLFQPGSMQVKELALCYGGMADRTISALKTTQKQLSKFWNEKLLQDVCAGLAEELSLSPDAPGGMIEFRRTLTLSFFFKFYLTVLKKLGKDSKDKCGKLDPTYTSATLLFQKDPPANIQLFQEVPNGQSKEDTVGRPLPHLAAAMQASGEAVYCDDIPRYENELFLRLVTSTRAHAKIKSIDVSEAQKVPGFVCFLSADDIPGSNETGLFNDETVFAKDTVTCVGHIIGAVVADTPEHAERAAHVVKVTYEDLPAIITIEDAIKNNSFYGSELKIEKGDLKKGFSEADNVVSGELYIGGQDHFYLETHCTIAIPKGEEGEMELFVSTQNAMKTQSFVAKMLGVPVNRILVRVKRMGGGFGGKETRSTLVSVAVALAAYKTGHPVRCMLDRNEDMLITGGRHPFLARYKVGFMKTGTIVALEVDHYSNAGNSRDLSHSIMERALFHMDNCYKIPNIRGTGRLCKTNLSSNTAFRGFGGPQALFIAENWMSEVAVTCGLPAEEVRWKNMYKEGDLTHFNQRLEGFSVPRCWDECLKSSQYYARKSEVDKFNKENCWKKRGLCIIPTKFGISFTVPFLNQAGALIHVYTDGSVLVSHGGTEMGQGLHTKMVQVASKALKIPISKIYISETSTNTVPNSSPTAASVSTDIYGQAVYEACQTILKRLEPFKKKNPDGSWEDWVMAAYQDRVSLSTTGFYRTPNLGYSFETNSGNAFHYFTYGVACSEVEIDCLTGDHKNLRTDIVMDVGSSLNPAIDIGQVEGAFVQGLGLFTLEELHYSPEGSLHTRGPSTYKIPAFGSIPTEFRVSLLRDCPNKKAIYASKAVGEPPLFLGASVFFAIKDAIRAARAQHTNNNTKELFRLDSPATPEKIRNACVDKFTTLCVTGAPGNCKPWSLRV

Consider `CC(C)n1cc(-c2ccc3c(c2)N(C)CC3)c2c(NS(=O)(=O)c3ccn(C)n3)ccnc21` [GSK2795039, reference compound], for which the “Rat_SD/Microsomes t1/2 (m)” value in series [1] is on record as 1.02 m. Further, the “solubility” value in series [2] was 36.7 µg/mL (≈ 81.5 µM). Also, the “Permeability(pH7.4) (PAMPA_Pion_Lipid 1e-6 cm/s)” value in series [3] is listed as […]. Moreover, the IC50 was […] at Bovine Xanthine Oxidase, 2170 ± 1110 nM on NOX2 [4] and […] in the series with NOX2 [5]. The “differences in activity across the panel of NOX family members” value in the series with NOX1-NOX5 was “unable to demonstrate significant differences in activity”. In the series on xanthine oxidase, the “greater concentrations required to inhibit xanthine oxidase than NOX2” value is recorded as […].
Turning to `Cn1ccc([S+](=O)([O-])Nc2ccnc3c2c(-c2ccc4c(c2)C(=O)CC4)cn3C2CC2)n1` [NCGC00650061, CN1C=CC(=N1)[S+]([O-])(=O)NC2=C3C(=CN(C4CC4)C3=NC=C2)C5=CC6=C(CCC6=O)C=C5], the half-life in series [1] came out at 11.8 min. For the same compound, the solubility in [2] (setting [7]) was greater than 66 µg/mL. Further, the Papp in series [3] came out at 72.8 ×10⁻⁶ cm/s. Moreover, the IC50 on Bovine Xanthine Oxidase came out at 2340 ± 2320 nM; at NOX2 [6], 4.25 µM.
On to `Cn1ccc([S+](=O)([O-])Nc2ccnc3c2c(-c2ccc4c(c2)C(=O)CC4)cn3C2CC2)n1` [NCGC00650062, CN1C=CC(=N1)[S+]([O-])(=O)NC2=C3C(=CN(C4CC4)C3=NC=C2)C5=CC6=C(CCC6=O)C=C5], for which the “Rat_SD/Microsomes t1/2 (m)” value in series [1] stood at 17.3 m. Further, in series [2], the “solubility” value amounted to 38.6 µg/mL (≈ 86.3 µM). Also, in [3], the “Permeability(pH7.4) (PAMPA_Pion_Lipid 1e-6 cm/s)” value was 88.1 1e-6 cm/s. Besides, the results for the IC50 on Bovine Xanthine Oxidase and on NOX2 [6] were 3110 nM and greater than 20 µM, respectively.
As for `Cn1ccc([S+](=O)([O-])Nc2ccnc3c2c(-c2ccc4c(c2)N(C2CC2)CC4)cn3CC2CC2)n1` [NCGC00650063, CN1C=CC(=N1)[S+]([O-])(=O)NC2=C3C(=CN(CC4CC4)C3=NC=C2)C5=CC6=C(CCN6C7CC7)C=C5], the half-life in series [1] worked out at 1.1 min. For the same compound, the solubility in [2] (setting [7]) is 1.4 µg/mL (≈ 2.87 µM). Moreover, the Papp in series [3] came to 1230 ×10⁻⁶ cm/s. Also, the results for the IC50 on Bovine Xanthine Oxidase and at NOX2 [6] were 360 ± 510 nM and 3.02 ± 2.96 µM, respectively.
As to `CCn1cc(-c2ccc3c(c2)N(C2CC2)CC3)c2c(N[S+](=O)([O-])c3ccn(C)n3)ccnc21` [NCGC00650067, CCN1C=C(C2=C(N[S+]([O-])(=O)C3=NN(C)C=C3)C=CN=C12)C4=CC5=C(CCN5C6CC6)C=C4], in [1], the half-life turned out to be 1 min. Moreover, in series [2] (setting [7]), the solubility stood at 13.9 µg/mL (≈ 30 µM). Further, in series [3], the Papp stood at 819 ×10⁻⁶ cm/s. Further, the IC50 came out at 7610 ± 10200 nM at Bovine Xanthine Oxidase and 2.4 ± 2.26 µM at NOX2 [6].
Regarding `Cn1ccc([S+](=O)([O-])Nc2ccnc3c2c(-c2ccc4c(c2)N(C2CC2)CC4)cn3CC2CCOCC2)n1` [NCGC00650068, CN1C=CC(=N1)[S+]([O-])(=O)NC2=C3C(=CN(CC4CCOCC4)C3=NC=C2)C5=CC6=C(CCN6C7CC7)C=C5], in series [1], the half-life was found to be 0.9 min. The solubility in series [2] (setting [7]) amounted to 13.1 µg/mL (≈ 24.6 µM). Further, in [3], the Papp is 907 ×10⁻⁶ cm/s. Further, the IC50 on Bovine Xanthine Oxidase worked out at 2300 nM; at NOX2 [6] it was 11.8 µM.
Take `Cn1ccc([S+](=O)([O-])Nc2ccnc3c2c(-c2ccc4c(c2)C(O)CC4)cn3C2CC2)n1` (stereo not drawn) [NCGC00650073, CN1C=CC(=N1)[S+]([O-])(=O)NC2=C3C(=CN(C4CC4)C3=NC=C2)C5=CC6=C(CCC6O)C=C5]: the half-life in series [1] amounted to 18.2 min. For the same compound, the solubility in series [2] (setting [7]) was determined as 31.1 µg/mL (≈ 69.2 µM). The Papp in series [3] was 182 ×10⁻⁶ cm/s. The values for the IC50 at Bovine Xanthine Oxidase and on NOX2 [6] were 19000 nM and greater than 20 µM, respectively.
For the compound `CN(C)C1CCc2ccc(-c3cn(C4CC4)c4nccc(N[S+](=O)([O-])c5ccn(C)n5)c34)cc21` (stereo not drawn) [NCGC00650075, CN(C)C1CCC2=C1C=C(C=C2)C3=CN(C4CC4)C5=NC=CC(N[S+]([O-])(=O)C6=NN(C)C=C6)=C35], in series [1], the half-life amounted to 14 min. Further, the solubility in [2] (setting [7]) was determined as 39.7 µg/mL (≈ 83.3 µM). In addition, the Papp in series [3] stood at 293 ×10⁻⁶ cm/s. Further, the IC50 is 3200 nM at Bovine Xanthine Oxidase and 0.0555 µM at NOX2 [6].
Regarding `O=[S+]([O-])(Nc1ccnc2c1c(-c1ccc3c(c1)N(C1CC1)CC31CC1)cn2C1CC1)c1ccn(C2CC2)n1` [NCGC00650101, [O-][S+](=O)(NC1=C2C(=CN(C3CC3)C2=NC=C1)C4=CC5=C(C=C4)C6(CC6)CN5C7CC7)C8=NN(C=C8)C9CC9], in series [1], the half-life came out at 1.2 min. The solubility in [2] (setting [7]) was determined as 36.8 µg/mL (≈ 69.9 µM). The Papp in [3] is 81.8 ×10⁻⁶ cm/s. Moreover, the IC50 on Bovine Xanthine Oxidase was found to be 1220 ± 320 nM; at NOX2 [6], 11.6 ± 8.72 µM.

Usually solubility stands for the dissolved amount per volume that the medium holds.
